This note sets out measurements from PubChem BioAssay (NCI).

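The compound was tested at five concentrations on cells cultured in 96-well plates, with a 48-hour exposure period. At the TGI there is no net growth.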

Test in all cases: DTP human tumour cell line panel, 48 h
In experiment [1] the test system is OVCAR-8 ovarian.
The test system of experiment [2] is 786-0 renal.
In experiment [3] the test system is SK-OV-3 ovarian.
In experiment [4] the test system is SF-539 CNS.
In experiment [5] the test system is OVCAR-5 ovarian.
Experiment [6] relates to IGROV1 ovarian.
Experiment [7] has as its system UACC-257 melanoma.
Experiment [8] has as its system HS 578T breast.

By TGI is commonly meant the concentration at which net growth stops. The low end stands for greater sensitivity of the cells, the high end for lower sensitivity of the cells. `CCOC(=O)c1cc2c(OC(C)=O)ccc(OC(C)=O)c2s1`: the TGI turned out to be 3.51 µM in experiment [1]; 6.24 µM in experiment [2]; 22.7 µM in experiment [3]; 3.36 µM in experiment [4]; 18.9 µM in experiment [5]; 6.52 µM in experiment [6]. Moreover, the TGI was determined as 4.97 µM in experiment [7] and 5.51 µM in experiment [8].
`CC(=O)N(CN1C(=O)CCC1C(=O)O)c1ccccc1` (centres undefined): the concentration for total growth inhibition (TGI) in experiment [1], in experiment [2], in experiment [3], in experiment [4], in experiment [5] and in experiment [6] was above 100 µM each time. For the same molecule, the TGI in experiment [7] and in experiment [8] was above 100 µM each time.
For `C/C(=C/CO[Si](C)(C)C(C)(C)C)C(=O)N(C)c1ccccc1I`, the concentration for total growth inhibition (TGI) was 32.2 µM in experiment [1]; 31.7 µM in experiment [2]; 35.5 µM in experiment [3]; 32.3 µM in experiment [4]; 27.8 µM in experiment [5]; 29.9 µM in experiment [6]. Further, the total growth inhibition concentration (TGI) in experiment [7] is 26.4 µM; in experiment [8], 43.5 µM.
Regarding `Cc1cc(Cc2c(F)c(F)c(Cc3cc(C)no3)c(F)c2F)on1`, the concentration for total growth inhibition (TGI) in experiment [1], in experiment [2], in experiment [3], in experiment [4], in experiment [5] and in experiment [6] was above 100 µM throughout. The TGI in experiment [7] and in experiment [8] was above 100 µM throughout.
For the molecule `COC(=O)C1=C(O)C(C(=O)OC)[C@@]2(O)[C@@H](C(=O)OC)C(c3ccc(OC(=O)/C(=C/c4ccc(Cl)cc4)c4ccc(Cl)cc4)cc3)C[C@@H]1[C@@H]2C(=O)OC` (some centres undefined), the TGI is above 100 µM in experiment [1]; above 100 µM in experiment [2]; above 100 µM in experiment [3]; 24.6 µM in experiment [4]; above 100 µM in experiment [5]; above 100 µM in experiment [6]. Besides, the total growth inhibition concentration (TGI) in experiment [7] and in experiment [8] was above 100 µM in each case.
`CS(=O)(=O)OCCN1CCC2(CC1)SSC1(CCN(CCOS(C)(=O)=O)CC1)S2`: the TGI was above 100 µM in experiment [1]; above 100 µM in experiment [2]; above 100 µM in experiment [3]; above 100 µM in experiment [4]; 93.2 µM in experiment [5]; above 100 µM in experiment [6]. In addition, the total growth inhibition concentration (TGI) in experiment [7] and in experiment [8] was above 100 µM each time.
Turning to `Cc1cc2ccccc2n1CC(=O)NCC(C)C`, the concentration for total growth inhibition (TGI) in experiment [1], in experiment [2], in experiment [3], in experiment [4], in experiment [5] and in experiment [6] was above 100 µM in each case. For the same molecule, the total growth inhibition concentration (TGI) in experiment [7] and in experiment [8] was above 100 µM throughout.
In the case of `COC(=O)c1ccc(-c2nc(C#N)c(N)o2)cc1`, the total growth inhibition concentration (TGI) in experiment [1], in experiment [2], in experiment [3], in experiment [4], in experiment [5] and in experiment [6] was above 100 µM in each case. The concentration for total growth inhibition (TGI) in experiment [7] and in experiment [8] was above 100 µM each time.
Consider `C/C(O)=C(\C=N\C(N)=S)C(=O)Nc1ccccc1C`, for which the concentration for total growth inhibition (TGI) in experiment [1], in experiment [2], in experiment [3], in experiment [4], in experiment [5] and in experiment [6] was above 100 µM in each case. Besides, the concentration for total growth inhibition (TGI) in experiment [7] and in experiment [8] was above 100 µM in each case.
As for `CC(C)CCC[C@@H](C)[C@H]1CC[C@H]2[C@@H]3CC=C4C[C@@H](OC(=O)c5cccc6c(=O)c7ccccc7[nH]c56)CC[C@]4(C)[C@H]3CC[C@]12C`, the total growth inhibition concentration (TGI) in experiment [1], in experiment [2], in experiment [3], in experiment [4], in experiment [5] and in experiment [6] was above 75 µM in each case. Also, the total growth inhibition concentration (TGI) in experiment [7] and in experiment [8] was above 75 µM throughout.
For `CCOC(=O)c1ccc2nc(NC(=O)COC(=O)CSc3nc(C)cc(C)n3)sc2c1`, the TGI in experiment [1] was above 100 µM; in experiment [2], above 100 µM; in experiment [3], above 100 µM; in experiment [4], 80.6 µM; in experiment [5], 86.1 µM; in experiment [6] it was above 100 µM. The TGI in experiment [7] and in experiment [8] was above 100 µM each time.
As for `CCCCCc1cc2c(cc1O)CC[C@@H]1[C@@H]2CC[C@]2(C)[C@@H](O)CC[C@@H]12`, the TGI in experiment [1] was found to be 43 µM; in experiment [2], 28.9 µM; in experiment [3] it was 45 µM; in experiment [4], 39.5 µM; in experiment [5], 33.6 µM; in experiment [6], 36.9 µM. Also, the TGI in experiment [7] was found to be 43.1 µM; in experiment [8], 46.5 µM.
On to `Cc1c2c3cc(O)ccc3nc-2n(C)c2ccccc12`, for which the total growth inhibition concentration (TGI) in experiment [1] came to 10.6 µM; in experiment [2], 10.5 µM; in experiment [3], 6.22 µM; in experiment [4], 4.98 µM; in experiment [5], 8.85 µM; in experiment [6] it was 8.92 µM. Besides, the results for the TGI in experiment [7] and in experiment [8] were 8.05 µM and 8.21 µM, respectively.
